Assay results: article PMC7944860 (Antiviral Research, 2021)
Several values for one entry are separate records, joined by “and”; a condition that tells them apart may be missing. Identical values can stand only once. Like-named read-outs stand apart in the source and are kept apart here.

Legend:
[1] = test system: HCoV-OC43; experiment: HCoV-OC43 focus reduction assay on MRC-5 cells; assay type: cell-based; settings: for selectivity index: HCoV-OC43, ratio of CC50 and EC50
[2] = Cytotoxicity assay; settings: human, Huh7-hACE2 cells
[3] = Cell viability assay; settings: human, MRC-5 cells
[4] = test system: SARS-CoV2; experiment: microbe, parasite or virus in culture; assay type: cell-based; settings: for EC50: read-out: EC50 (μM) (mean ± SD)
[5] = test system: Huh7-hACE2 cells; experiment: Cytotoxicity assay; settings: read-out: CC50 (μM) (mean ± SD), 20 h, Alamar Blue
[6] = test system: MRC-5 cells; experiment: Cell viability assay; settings: read-out: CC50 (μM) (mean ± SD), 20 h, MTS
[7] = test system: SARS-CoV2; experiment: microbe, parasite or virus in culture; assay type: cell-based; settings: for EC50: read-out: EC50 (μM) (mean ± SD), virus yield reduction
[8] = test system: SARS-CoV2; settings: 2020, cited from earlier work; for increase of remdesivir inhibitory activity (synergy): ref Bafna et al.
[9] = test system: HCoV-OC43; experiment: HCoV-OC43 virus yield reduction assay on MRC-5 cells; assay type: cell-based; settings: for EC50: Betacoronavirus 1, OC43, MRC5, 24 h, read-out: EC50 (μM) (mean ± SD), virus yield reduction; for Virus titer reduction Log10 (mean ± SD) at highest tested dose: FFU/mL vs infected untreated control
[10] = Betacoronavirus 1, OC43, MRC5, 20 h, read-out: EC50 (μM) (mean ± SD), HCoV-OC43, MRC-5 cells, 20 h, focus reduction
[11] = Severe acute respiratory syndrome coronavirus 2, 20 h
[12] = read-out: EC50 (μM) (mean ± SD), HCoV-OC43, MRC-5 cells, 20 h, focus reduction
[13] = HCoV-OC43, MRC-5 cells, 20 h, focus reduction

Row | SMILES | EC50 [1, 10] [µM] | CC50 at 20 h [2] [µM] | CC50 at 20 h [3] [µM] | EC50 [4, 11] [µM] | further results
1 | CC1(C)CCC(CN2CCN(c3ccc(C(=O)NS(=O)(=O)c4ccc(NCC5CCOCC5)c([N+](=O)[O-])c4)c(Oc4cnc5[nH]ccc5c4)c3)CC2)=C(c2ccc(Cl)cc2)C1 [Venetoclax] | 3.5 ± 0.5 | 22 ± 6.2 | 10.6 ± 1.5 | ~6.2 | 
2 | Cc1ccc(C(=O)Nc2ccc(CN3CCN(C)CC3)c(C(F)(F)F)c2)cc1C#Cc1cnc2cccnn12 [Ponatinib] | 0.1 ± 0.05 | 8.7 ± 3.8 | 3.1 ± 0.5 | 1.1 ± 0.2 | 
3 | C=C[C@@H]1C[C@]1(NC(=O)[C@@H]1C[C@@H]2CN1C(=O)[C@H](C(C)(C)C)NC(=O)O[C@@H]1C[C@H]1CCCCCc1nc3ccc(OC)cc3nc1O2)C(=O)NS(=O)(=O)C1CC1.O [Grazoprevir] |  |  |  |  | EC50 [1, 12]: 11 ± 1.1 µM; CC50 [5]: 118 ± 6 µM; CC50 [6]: 70 ± 12.8 µM; Virus titer reduction Log10 (mean ± SD) at highest tested dose [7]: 3.9 and 3.9 ± 0.07 (100 μM) Log10; EC50 [7]: 3.3 ± 0.9 µM; EC50 [4]: ~16 µM and 16 µM; increase of remdesivir inhibitory activity (synergy) [8]: ≤ 10 fold
4 | CC1(C)[C@@H](OC(=O)CCC(=O)O)CC[C@]2(C)[C@H]3C(=O)C=C4[C@@H]5C[C@@](C)(C(=O)O)CC[C@]5(C)CC[C@@]4(C)[C@]3(C)CC[C@@H]12 [Carbenoxolone] | 45.7 ± 8 | > 100 | 251 ± 17 | 66 ± 11 | 
5 | COc1cc([C@@H]2c3cc4c(cc3[C@@H](O[C@@H]3O[C@@H]5CO[C@@H](c6cccs6)O[C@H]5[C@H](O)[C@H]3O)[C@H]3COC(=O)[C@H]23)OCO4)cc(OC)c1O [Teniposide] |  | > 100 | 701 ± 281 | 97 ± 0.7 | EC50 (μM) (mean ± SD) [1, 13]: no antiviral activity
6 | C[C@@H]1C/C=C/C=C/C=C/C=C/[C@H](O[C@@H]2O[C@H](C)[C@@H](O)[C@H](N)[C@@H]2O)C[C@@H]2O[C@](O)(C[C@@H](O)C[C@H]3O[C@@H]3/C=C/C(=O)O1)C[C@H](O)[C@H]2C(=O)O [Natamycin] |  | 35.9 ± 13.4 | 47.3 ± 4.4 | 24.3 ± 4.4 | EC50 (μM) (mean ± SD) [1, 13]: no antiviral activity
7 | COC(=O)N[C@H](C(=O)N1CCC[C@H]1c1nc(-c2ccc3c(c2)O[C@@H](c2ccccc2)n2c-3cc3cc(-c4c[nH]c([C@@H]5CCCN5C(=O)[C@@H](NC(=O)OC)C(C)C)n4)ccc32)c[nH]1)C(C)C [Elbasvir] | ~1.5 | > 1000 | > 1000 | ~23 | selectivity index [1]: higher than 600; EC50 [9]: 1.3 ± 0.4 µM; Virus titer reduction Log10 (mean ± SD) at highest tested dose ([9]; HCoV-OC43, 100 μM): 1.4 ± 0.2 (100 μM) Log10; Virus titer reduction Log10 (mean ± SD) at highest tested dose [7]: 0.6 and 0.6 ± 0.2 (100 μM) Log10; EC50 [7, 11]: 14.4 ± 7.9 µM; increase of remdesivir's apparent potency in preventing SARS-CoV2 replication ([8]; in combination with grazoprevir (Zepatier), ref Nguyenla et al.): 25 fold
8 | O=C1[C@@H]2[C@H]3CC[C@H](C3)[C@@H]2C(=O)N1C[C@@H]1CCCC[C@H]1CN1CCN(c2nsc3ccccc23)CC1 [Lurasidone] | 1.1 ± 0.4 | > 1000 | > 1000 | 18 ± 4.6 | selectivity index [1]: higher than 600; EC50 [9]: 8.3 ± 2 µM; Virus titer reduction Log10 (mean ± SD) at highest tested dose ([9]; HCoV-OC43, 100 μM): 6.3 ± 1.5 (100 μM) Log10; Virus titer reduction Log10 (mean ± SD) at highest tested dose [7]: 1.3 and 1.3 ± 0.3 (100 μM) Log10; EC50 [7, 11]: 6.4 ± 3.9 µM
9 | COc1ccc2c(O[C@@H]3C[C@H]4C(=O)N[C@]5(C(=O)NS(=O)(=O)C6CC6)C[C@H]5/C=C\CCCCN(C)C(=O)[C@@H]4C3)cc(-c3nc(C(C)C)cs3)nc2c1C [Simeprevir] | ~2.1 | 47.5 ± 41 | 11.1 ± 2.3 | ~9.3 | increase of remdesivir inhibitory activity (synergy) [8]: ≤ 10 fold
10 | Cn1nnc(-c2ccc(-c3ccc(N4C[C@H](COP(=O)(O)O)OC4=O)cc3F)cn2)n1 [Tedizolid, Tedizolid phosphate] |  |  |  |  | EC50 [1, 12]: 94 ± 25 µM; CC50 [6]: > 1000 µM
11 | CCc1cc2c(cc1N1CCC(N3CCOCC3)CC1)C(C)(C)c1[nH]c3cc(C#N)ccc3c1C2=O [Alectinib] | 0.6 ± 0.2 |  | > 1000 |  | EC50 [9]: 1 ± 0.1 µM; Virus titer reduction Log10 (mean ± SD) at highest tested dose ([9]; HCoV-OC43, 33 μM): 2.9 ± 0.1 (33 μM) Log10; EC50 (μM) (mean ± SD) [4]: no activity
12 | CCc1c2c(nc3ccc(OC(=O)N4CCC(N5CCCCC5)CC4)cc13)-c1cc3c(c(=O)n1C2)COC(=O)[C@]3(O)CC [Irinotecan] |  | > 100 | 63.4 ± 11.4 | 85.2 ± 17 | EC50 (μM) (mean ± SD) [1, 13]: no antiviral activity
13 | Cc1ccc(C(=O)Nc2ccc(S(=O)(=O)O)c3cc(S(=O)(=O)O)cc(S(=O)(=O)O)c23)cc1NC(=O)c1cccc(NC(=O)Nc2cccc(C(=O)Nc3cc(C(=O)Nc4ccc(S(=O)(=O)O)c5cc(S(=O)(=O)O)cc(S(=O)(=O)O)c45)ccc3C)c2)c1 [Suramin] | 19.3 ± 4.3 | > 100 | > 1000 | 64 ± 6.6 | 
14 | CCN1CCN(C(=O)N[C@@H](C(=O)N[C@@H]2C(=O)N3C(C(=O)O)=C(CSc4nnnn4C)CS[C@H]23)c2ccc(O)cc2)C(=O)C1=O [Cefoperazone] |  |  | > 1000 |  | EC50 (μM) (mean ± SD) [1, 13]: no antiviral activity
